Series [1] deals with MCF-7 (breast) cancer cells. The series can be described thus: MTT cytotoxicity assay, MCF-7. The series is classed as cell-based. As to the method:
(§1) CEM (lymphoma), A549 (lung), PC-3 (prostate), MIA PaCa-2 (pancreatic), MCF-7 and MDA-MB-231 (breast) cancer cells were purchased from ATCC. PC3, A549, MDA-MB-231 and CEM were cultured in RPMI-1640 medium supplemented with 10% Fetal Bovine Serum (FBS) and 1% penicillin/streptomycin. MIA PaCa-2 and MCF-7 cells were cultured in DMEM supplemented with 10% FBS and 1% penicillin/streptomycin. Primary human dermal fibroblasts (HDF) from the dermis of normal human neonatal foreskin were obtained from the Dermatology Department, Emory University. MTT dye (Thiazolyl Blue Tetrazolium Bromide) dimethyl sulfoxide (DMSO), propidium iodide and RNase were purchased from Sigma (St. Louis, Mo.). Cells were cultured at 37° C. with 5% CO2.
(§2) MTT (3-(4,5-dimethylthiazol-2-yl)-2,5-diphenyltetrazolium bromide) assay was employed to evaluate the proliferative capacity of cells. Essentially, MTT is a colorimetric assay, which utilizes the […] tetrazolium dye and converts it into a colored formazan salt, which can be quantified by measuring absorbance at 570 nm. Briefly, a 96-well format was used to seed […] medium containing cells at a density of 5×10^3 cellsper well. After 24 h of incubation, cells were treated with gradient concentration of the test compounds, which were dissolved in DMSO. The final concentration of DMSO in the culture medium was maintained at 0.1%. After 48 h of drug incubation, the spent medium was removed and the wells were washed twice with PBS. 100 μl of fresh medium and 10 μl of MTT (5 mg/ml in PBS) was added to the wells and cells were incubated at 37° C. in dark for 4 h. The formazan product was dissolved by adding 100 μl of 100% DMSO after removing the medium from each well. The absorbance was measured at 570 nm using a Spectra Max Plus multi-well plate reader (Molecular Devices, USA).

The test system of series [2] is A549 (lung) cancer cells. The series can be described thus: MTT cytotoxicity assay, A549. Format: cell-based. On the procedure: as §1, §2
In series [3] the test system is MIA PaCa-2 (pancreatic) cancer cells. The series can be described thus: MTT cytotoxicity assay, MIA PaCa-2. The series is classed as cell-based. As to the method:
as §1, §2
On the technique in general: Formazan colour is commonly taken as a measure of viable cells.

Series [4] has as its system CEM (lymphoma) cancer cells. Kind of series: MTT cytotoxicity assay, CEM. As to conditions: 48 h drug incubation. Format: cell-based. As to the method:
as §1, §2

The subject of series [5] is PC-3 (prostate) cancer cells. The series can be described thus: MTT cytotoxicity assay, PC-3. The settings on record: 48 h drug incubation. Format: cell-based. On the procedure:
as §1, §2

Series [6] relates to MDA-MB-231 cells. Kind of series: Cell-cycle analysis by flow cytometry. Format: cell-based. As to conditions: 25 μM; for G2/M population up to 24 h: 12 and 24 h. On the procedure: Flow-cytometric evaluation of the cell-cycle status was performed as described previously. Control and drug treated cells were centrifuged, washed with ice-cold PBS, and fixed in 70% ethanol. Tubes containing the cell pellets were stored at 4° C. for at least 24 h. Cells were then centrifuged at 1000 g for 10 min and the supernatant was discarded. The pellets were washed twice with 5 ml of PBS and then stained with 0.5 ml of propidium iodide (0.1% in 0.6% Triton-X in PBS) and 0.5 ml of RNase A (2 mg/ml) for 45 min in dark. Samples were then analyzed on a BD FACSCanto II flow-cytometer (BD Biosciences, Sparks, Md.).
To gain further insights into the precise mechanisms responsible for inhibition of cellular proliferation, we next examined the effect of benzofuranone ring substituted analogs on cell cycle distribution profiles of breast cancer MDA-MB-231 cells. The effect of compounds 3-7 on mitotic index (percent G2/M cells) and apoptotic index (percent sub-G1 cells) as a function of time in MDA-MB-231 cells was studied using fluorescence activated cell sorting (FACS) analysis. All 5 compounds were used at 25 μM concentration over 48 h of treatment.
Although staining of DNA with propidium iodide is extremely useful to determine the percent cell population in various cell-cycle phases, it has its limitations. For example, it cannot dissect out the differences between G2 and M phases as both have 4N DNA amounts. Thus, to explore further, a mitosis specific marker, MPM-2, was used to distinctly identify which phase the cells were in.

Series [7] concerns cancer cell lines (A549, CEM, MCF-7, MIA PaCa-2, PC-3). The series can be described thus: MTT cytotoxicity assay, several cancer cell lines together. The series is classed as cell-based. As to conditions: for antiproliferative activity, comparison in words: across cell lines of Table 3. On the procedure: as §1, §2
The mark [8] stands for this setting: Homo sapiens, MCF7, 48 h drug incubation.
Where [9] appears, read: Homo sapiens, A549, 48 h drug incubation.
The mark [10] stands for this setting: Homo sapiens, MIA PaCa-2, 48 h drug incubation.

The results in this text go back to patent US20140121233A1, “Synthesis and Characterization of Second Generation Benzofuranone Ring Substituted Noscapine Analogs” (GEORGIA STATE UNIVERSITY RESEARCH FOUNDATION, INC., priority 2011, published 2014).

Read-outs that look alike come from different tables or passages of the source.

A word on the IC50: it is the midpoint of a concentration-inhibition curve. With `COc1ccc2c(c1OC)C(=O)O[C@@H]2[C@H]1c2c(cc3c(c2OC)OCO3)CCN1C` [Noscapine], the IC50 is 45 µM in series [1] (setting [8]); 73 µM in series [2] (setting [9]); 70 µM in series [3] (setting [10]); 20 µM in series [4]; 51 µM in series [5].

`COc1ccc2c(c1OC(C)=O)C(=O)O[C@@H]2[C@H]1c2c(cc3c(c2OC)OCO3)CCN1C` [Compound 3, (S)-5-methoxy-1-(R)-4-methoxy-6-methyl-5,6,7,8-tetrahydro-[1,3]dioxolo[4,5-g]isoquinolin-5-yl)-3-oxo-1,3-dihydroisobenzofuran-4-yl acetate]: the IC50 in series [1] (48 h drug incubation) was 166 µM; in series [7] (lung, lymphoma, pancreatic and prostate, read-out: IC50 values, lung, lymphoma, pancreatic and prostate cancer cells), 1 to 15 µM; in series [2] (48 h drug incubation), 3.2 µM; in series [3] (48 h drug incubation), 1 µM; in series [4] it was 15.5 µM; in series [5], 9.3 µM. In series [6], the “G2/M population up to 24 h” value is reported as “G2/M population increased considerably”. In series [6] (48 h), the “G2/M population at 48 h” value is reported as “G2/M population decreased significantly”. Also, the “antiproliferative activity, comparison in words” value in series [7] was “generally most-effective against most cell lines”.

Turning to `CCNC(=O)Oc1c(OC)ccc2c1C(=O)O[C@@H]2[C@H]1c2c(cc3c(c2OC)OCO3)CCN1C` [Compound 5], the IC50 turned out to be 49 µM in series [1] (48 h drug incubation); 5.6 µM in series [2] (48 h drug incubation); 49 µM in series [3] (48 h drug incubation); 1.7 µM in series [4]; 6.6 µM in series [5]. Further, the “G2/M population up to 24 h” value in series [6] is “G2/M population increased considerably”. Besides, in series [6] (48 h), the “G2/M population at 48 h” value is listed as “mostly remained arrested in G2/M phase”. The “apoptotic index (sub-G1)” value in series [6] (48 h) is reported as “lower compared to compound 3”. Also, the “duration of G2 arrest” value in series [6] (MPM-2 marker) is reported as “the arrest was maintained until 48 h”.

`COc1ccc2c(c1OC(=O)Nc1ccccc1)C(=O)O[C@@H]2[C@H]1c2c(cc3c(c2OC)OCO3)CCN1C` [Compound 6, (S)-5-methoxy-1-0)-4-methoxy-6-methyl-5,6,7,8-tetrahydro-[1,3]dioxolo[4,5-g]isoquinolin-5-yl)-3-oxo-1,3-dihydroisobenzofuran-4-yl phenylcarbamate]: the IC50 in series [1] (48 h drug incubation) was 182 µM; in series [7] (majority of the cell lines, read-out: IC50 values, majority of the cell lines), 50 to 250 µM; in series [2] (48 h drug incubation), 50 µM; in series [3] (48 h drug incubation) it was 1 µM; in series [4], 250 µM; in series [5], 83.2 µM.

Turning to `COc1ccc2c(c1OC(=O)c1ccccc1)C(=O)O[C@@H]2[C@H]1c2c(cc3c(c2OC)OCO3)CCN1C` [Compound 4, (S)-5-methoxy-1-(R)-4-methoxy-6-methyl-5,6,7,8-tetrahydro-[1,3]dioxolo[4,5-g]isoquinolin-5-yl)-3-oxo-1,3-dihydroisobenzofuran-4-yl benzoate], the IC50 in series [1] (48 h drug incubation) was 34 µM; in series [7] (lung, pancreatic and prostate, read-out: IC50 values, lung, pancreatic and prostate cancer cells), below 5 µM; in series [2] (48 h drug incubation) it was 4.5 µM; in series [3] (48 h drug incubation) it was 1.7 µM; in series [4] it was 49 µM; in series [5], 4.8 µM.

Broadly, the melting point is the temperature, or range, at which the solid turns liquid. Regarding `COc1ccc2c(c1O)C(=O)O[C@@H]2[C@H]1c2c(cc3c(c2OC)OCO3)CCN1C` [Compound 2, (S)-7-hydroxy-6-methoxy-3-((R)-4-methoxy-6-methyl-5,6,7,8-tetrahydro[1,3]dioxolo-[4,5-g]isoquinolin-5-yl)isobenzofuran-1(3H)-one], the melting point was in the range of 142 to 143 °C.

Take `COc1ccc2c(c1OC(=O)NCc1ccccc1)C(=O)O[C@@H]2[C@H]1c2c(cc3c(c2OC)OCO3)CCN1C` [Compound 7, (S)-5-methoxy-1-((R)-4-methoxy-6-methyl-5,6,7,8-tetrahydro-[1,3]dioxolo[4,5-g]isoquinolin-5-yl)-3-oxo-1,3-dihydroisobenzofuran-4-yl benzylcarbamate]: the IC50 worked out at 74.1 µM in series [1] (setting [8]); 25 µM in series [2] (setting [9]); 24.5 µM in series [3] (setting [10]); 7.1 µM in series [4]; 49 µM in series [5]. In series [7], the “antiproliferative activity, comparison in words” value is given as “relatively lower IC50 values when compared to compound 6”.
